From publication PMC3492761 (Journal of medicinal chemistry, 2012)

How the values were obtained:
[1] = system: A/Brisbane/10/2007 (H3N2); conditions: read-out: EC50, cytopathic effect inhibition
[2] = system: A/WSN/33 (H1N1) influenza virus; conditions: mouse, in vivo, po
[3] = male (rat, dog), human, microsomes, 1 h

SMILES | EC50 [1] [µM] | also measured
CCC(CC)O[C@@H]1C=C(P(=O)(O)O)C[C@H](N)[C@H]1NC(C)=O [3a, tamiphosphor] | > 10 | 
CCOP(=O)(OCC)C1=C[C@@H](OC(CC)CC)[C@H](NC(C)=O)[C@@H](N)C1 [3b, tamiphosphor diethyl ester] |  | protection of infected mice [2]: No significant protection
CCOP(=O)(O)C1=C[C@@H](OC(CC)CC)[C@H](NC(C)=O)[C@@H](N)C1 [3c, tamiphosphor monoethyl ester] | > 10 | 
CCC(CC)O[C@@H]1C=C(P(=O)(O)O)C[C@H](NC(=N)N)[C@H]1NC(C)=O [4a, guanidino-tamiphosphor] | > 10 | 
CCOP(=O)(O)C1=C[C@@H](OC(CC)CC)[C@H](NC(C)=O)[C@@H](NC(=N)N)C1 [4c, guanidino-tamiphosphor monoethyl ester] | > 10 | 
Cc1ncc2n1-c1ccc(Cl)cc1C(c1ccccc1F)=NC2 [midazolam] |  | metabolized [3]: 65–100%
C[C@]12CC[C@H]3[C@@H](CCC4=CC(=O)CC[C@@]43C)[C@@H]1CC[C@@H]2O [testosterone] |  | metabolized [3]: 65–100%
